Laboratory results taken from US20180318311A1, “TRICYCLIC 2-QUINOLINONES AS ANTIBACTERIALS” (priority 2017, published 2018).
Values after ≈ are worked out from the molar mass of the structure shown. Counter-ions that a name gives are not always drawn. Like-named read-outs stand apart in the source and are kept apart here.

Legend:
Type in all cases: cell-based
[1] = test system: S. aureus ATCC 49951 (NB01006); test: MIC by broth microdilution, S. aureus NB01006; details: Staphylococcus aureus, ATCC49951, CAMHB, 35° C., 20 hours, read-out: Antibacterial activity (MIC) NB01006
Outline: (§1)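 CAMHB, ~5×10^5 CFU/mL, 2-fold serial dilutions (final DMSO 1%), 35° C, ambient air, 20 h. Read OD600 plus visual check; MIC = lowest conc. with no visible growth, μg/mL.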

[2] = test system: S. aureus NB01006-AVR005, gyrA (S84L), grlA (580F) and grlB (E471K); test: microbe, parasite or virus in culture; details: Staphylococcus aureus, 20 h, read-out: Antibacterial activity (MIC) NB01006-AVR005
Outline: as §1

[3] = test system: S. aureus NB01080 fluoroquinolone-resistant clinical isolate; test: MIC by broth microdilution, S. aureus NB01080; details: Staphylococcus aureus, CAMHB, 35° C., 20 hours, read-out: Antibacterial activity (MIC) NB01080
Outline: as §1

[4] = test system: E. faecalis ATCC 29212 (NB04001); test: MIC by broth microdilution, E. faecalis NB04001; details: Enterococcus faecalis, ATCC29212, CAMHB, 35° C., 20 hours, read-out: Antibacterial activity (MIC) NB04001
Outline: as §1

[5] = test system: S. pneumoniae ATCC 25922 (NB07001); test: MIC by broth microdilution, S. pneumoniae NB07001; details: Streptococcus pneumoniae, read-out: Antibacterial activity (MIC) NB07001
Outline: as §1

[6] = test system: E. coli ATCC 25922 (NB27001); test: MIC by broth microdilution, E. coli NB27001; details: Escherichia coli, ATCC25922, CAMHB, 35° C., 20 hours, read-out: Antibacterial activity (MIC) NB27001
Outline: as §1

[7] = test system: P. aeruginosa NB52019, wild-type PAO1 strain; test: MIC by broth microdilution, P. aeruginosa NB52019; details: Pseudomonas aeruginosa, CAMHB, 35° C., 20 hours, read-out: Antibacterial activity (MIC) NB52019
Outline: as §1

SMILES	MIC [1] [µg/mL]	MIC [2] [µg/mL]	MIC [3] [µg/mL]	MIC [4] [µg/mL]	MIC ([5]; ATCC25922, 20 h) [µg/mL]	MIC [6] [µg/mL]	MIC [7] [µg/mL]	MIC ([5]; ATCC25922, S. pneumoniae, CAMHB supplemented with 5% lysed horse blood, 35° C., 20 hours) [µg/mL]
C[C@H](N)[C@@H]1CCN(c2cc(F)c3cc(C(=O)O)c(=O)n4c3c2OC[C@@H]4C)C1 [Example 12.2, (S)-10-((R)-3-((S)-1-aminoethyl)pyrrolidin-1-yl)-8-fluoro-3-methyl-5-oxo-2,3-dihydro-5H-[1,4]oxazino[2,3,4-ij]quinoline-6-carboxylic acid]	< 1	1 to 32 (≈ 2.66 to 85.2 µM)	1 to 32 (≈ 2.66 to 85.2 µM)	< 1	< 1	1 to 32 (≈ 2.66 to 85.2 µM)	1 to 32 (≈ 2.66 to 85.2 µM)	–
C[C@H](N)[C@@H]1CCN(c2ccc3cc(C(=O)O)c(=O)n4c3c2OC[C@@H]4C)C1 [Example 12.4, (S)-10-((R)-3-((S)-1-aminoethyl)pyrrolidin-1-yl)-3-methyl-5-oxo-2,3-dihydro-5H-[1,4]oxazino[2,3,4-ij]quinoline-6-carboxylic acid]	< 1	1 to 32 (≈ 2.8 to 89.5 µM)	1 to 32 (≈ 2.8 to 89.5 µM)	< 1	< 1	1 to 32 (≈ 2.8 to 89.5 µM)	1 to 32 (≈ 2.8 to 89.5 µM)	–
C[C@H]1COc2c(N3CCC(F)(CN)C3)ccc3cc(C(=O)O)c(=O)n1c23 (stereo partly drawn) [Example 12.5, (3S)-10-(3-(aminomethyl)-3-fluoropyrrolidin-1-yl)-3-methyl-5-oxo-2,3-dihydro-5H-[1,4]oxazino[2,3,4-ij]quinoline-6-carboxylic acid]	1 to 32 (≈ 2.77 to 88.6 µM)	> 32	1 to 32 (≈ 2.77 to 88.6 µM)	1 to 32 (≈ 2.77 to 88.6 µM)	1 to 32 (≈ 2.77 to 88.6 µM)	1 to 32 (≈ 2.77 to 88.6 µM)	> 32	–
C[C@H]1COc2c(N3CC4CC4(N)C3)ccc3cc(C(=O)O)c(=O)n1c23 (stereo partly drawn) [Example 12.6, (3S)-10-(1-amino-3-azabicyclo[3.1.0]hexan-3-yl)-3-methyl-5-oxo-2,3-dihydro-5H-[1,4]oxazino[2,3,4-ij]quinoline-6-carboxylic acid]	1 to 32 (≈ 2.93 to 93.7 µM)	> 32	1 to 32 (≈ 2.93 to 93.7 µM)	1 to 32 (≈ 2.93 to 93.7 µM)	1 to 32 (≈ 2.93 to 93.7 µM)	1 to 32 (≈ 2.93 to 93.7 µM)	> 32	–
C[C@H]1COc2c(N3CC[C@@H](C4(N)CC4)C3)c(F)c(F)c3cc(C(=O)O)c(=O)n1c23 [Example 13.1, (S)-10-((R)-3-(1-aminocyclopropyl)pyrrolidin-1-yl)-8,9-difluoro-3-methyl-5-oxo-2,3-dihydro-5H-[1,4]oxazino[2,3,4-ij]quinoline-6-carboxylic acid hydrochloride salt]	< 1	< 1	< 1	< 1	< 1	< 1	1 to 32	–
C[C@H](N)[C@@H]1CCN(c2c(F)c(F)c3cc(C(=O)O)c(=O)n4c3c2OC[C@@H]4C)C1 [Example 13.2, (S)-10-((R)-3-((S)-1-aminoethyl)pyrrolidin-1-yl)-8,9-difluoro-3-methyl-5-oxo-2,3-dihydro-5H-[1,4]oxazino[2,3,4-ij]quinoline-6-carboxylic acid]	< 1	< 1	< 1	< 1	< 1	< 1	1 to 32 (≈ 2.54 to 81.3 µM)	–
C[C@H]1COc2c(N3CCN(C)CC3)c(F)c(F)c3cc(C(=O)O)c(=O)n1c23 [Example 13.3]	1 to 32 (≈ 2.64 to 84.4 µM)	> 32	> 32	> 32	–	1 to 32 (≈ 2.64 to 84.4 µM)	> 32	> 32
C[C@H]1COc2c(N3CCC(F)(CN)C3)c(F)c(F)c3cc(C(=O)O)c(=O)n1c23 (stereo partly drawn) [Example 13.5, (3S)-10-(3-(aminomethyl)-3-fluoropyrrolidin-1-yl)-8,9-difluoro-3-methyl-5-oxo-2,3-dihydro-5H-[1,4]oxazino[2,3,4-ij]quinoline-6-carboxylic acid]	< 1	1 to 32 (≈ 2.52 to 80.5 µM)	1 to 32 (≈ 2.52 to 80.5 µM)	< 1	< 1	1 to 32 (≈ 2.52 to 80.5 µM)	> 32	–
C[C@H]1COc2c(N3CC[C@@H](C4(N)CCC4)C3)c(F)c(F)c3cc(C(=O)O)c(=O)n1c23 [Example 13.8, (S)-10-((R)-3-(1-aminocyclobutyl)pyrrolidin-1-yl)-8,9-difluoro-3-methyl-5-oxo-2,3-dihydro-5H-[1,4]oxazino[2,3,4-ij]quinoline-6-carboxylic acid]	< 1	< 1	< 1	< 1	< 1	1 to 32 (≈ 2.38 to 76.3 µM)	1 to 32 (≈ 2.38 to 76.3 µM)	–
